Reference: patent US9365481B2, “Cyclohexenone compositions and process for making thereof” (Golden Biotechnology Corporation, priority 2013, dated 2016)

Test system: H838
Assay: CCK-8 cell viability assay, H838
Assay type: cell-based, human
Conditions: H838 cells, statement in words
Experimental: Cell viability was measured using Cell Counting Kit-8 (CCK-8, Enzo Life Sciences, Farmingdale, N.Y.). In this assay, WST-8 is reduced by dehydrogenases in cells to produce a yellow-colored product (formazan), which is soluble in culture medium. The amount of formazan generated is directly proportional to the number of living cells. After treatment, CCK-8 solution was added to each well and incubated for 4 h. The concentration of formazan was measured with a spectrophotometer at an absorbance wavelength of 450 nm. Cell viability was expressed as a percentage of the corresponding control.
To determine whether the cytotoxic effects of Compound 1 correlate with the presence of Ras mutations, cell lines derived from human lung cancer (A549 and H838), liver cancer (HepG2 and Hep3B), and leukemia (K562 and THP-1) with wild-type Ras (H838, Hep3B, and K562) or mutant Ras (A549, HepG2, and THP-1) were used. Cell viability was measured after 48 h of Compound 1 treatment.
Next, the IC50 values for Compound 1 analogs (Compounds 29, 30 and 31), a metabolite (Compound 27), and analogues isolated from filamentous A. camphorata (Compounds 25, 26, 28) were determined in H838 cells. […] (Table 1)

With `COC1=C(OCc2ccccc2)C(O)C(C/C=C(\C)CC/C=C(\C)CCC=C(C)C)C(C)C1=O` (stereo not shown) [Compound 31, 3-(benzyloxy)-4-hydroxy-2-methoxy-6-methyl-5-[(2E,6E)-3,7,11-trimethyldodeca-2,6,10-trien-1-yl]cyclohex-2-en-1-one] the “cytotoxic effect compared with Compound 1” value was “even more cytotoxic than Compound 1”.
